Test results from paper PMC10446182, “Reduced steroid activation of elephant shark GR and MR after inserting four amino acids from the DNA-binding domain of lamprey corticoid receptor-1” (PLOS ONE, 2023).
Like-named read-outs stand apart in the source and are kept apart here.

How the values were obtained:
Test in all cases: luciferase reporter transactivation in HEK293 cells
Type in all cases: cell-based
[1] = biological target: T1, FLAG-tagged wild-type elephant shark GR (Callorhinchus milii, UniProt A0A4W3H7L4)
T1 construct: full-length, N-terminal FLAG tag, transiently expressed in HEK293 cells
T1 sequence (A0A4W3H7L4 1-704): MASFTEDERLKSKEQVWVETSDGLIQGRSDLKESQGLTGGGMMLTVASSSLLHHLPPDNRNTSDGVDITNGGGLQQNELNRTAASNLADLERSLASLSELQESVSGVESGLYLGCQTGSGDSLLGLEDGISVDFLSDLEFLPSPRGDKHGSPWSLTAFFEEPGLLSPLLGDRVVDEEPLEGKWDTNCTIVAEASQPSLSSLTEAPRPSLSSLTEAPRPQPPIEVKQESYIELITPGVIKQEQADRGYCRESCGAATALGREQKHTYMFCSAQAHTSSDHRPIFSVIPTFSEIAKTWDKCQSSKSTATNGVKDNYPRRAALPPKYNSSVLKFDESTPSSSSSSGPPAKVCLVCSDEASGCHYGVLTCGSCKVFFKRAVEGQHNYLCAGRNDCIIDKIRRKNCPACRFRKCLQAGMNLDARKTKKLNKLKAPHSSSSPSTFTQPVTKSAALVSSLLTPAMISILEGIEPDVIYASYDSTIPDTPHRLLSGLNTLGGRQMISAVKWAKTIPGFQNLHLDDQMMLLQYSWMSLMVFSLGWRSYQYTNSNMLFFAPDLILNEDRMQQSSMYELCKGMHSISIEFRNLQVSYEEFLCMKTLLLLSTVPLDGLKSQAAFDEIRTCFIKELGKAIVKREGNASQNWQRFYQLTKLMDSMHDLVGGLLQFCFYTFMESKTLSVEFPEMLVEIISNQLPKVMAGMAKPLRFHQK
From the text: (§1) luciferase reporter transactivation in HEK293 cells on FLAG-tagged wild-type elephant shark GR

[2] = biological target: T2, FLAG-tagged wild-type elephant shark MR (Callorhinchus milii, UniProt A0A4W3I5J5); details: MMTV-luc promoter; agonist; 37 C
T2 construct: gene nr3c2; full-length, N-terminal FLAG tag, transiently expressed in HEK293 cells
T2 sequence (A0A4W3I5J5 entry or part of it): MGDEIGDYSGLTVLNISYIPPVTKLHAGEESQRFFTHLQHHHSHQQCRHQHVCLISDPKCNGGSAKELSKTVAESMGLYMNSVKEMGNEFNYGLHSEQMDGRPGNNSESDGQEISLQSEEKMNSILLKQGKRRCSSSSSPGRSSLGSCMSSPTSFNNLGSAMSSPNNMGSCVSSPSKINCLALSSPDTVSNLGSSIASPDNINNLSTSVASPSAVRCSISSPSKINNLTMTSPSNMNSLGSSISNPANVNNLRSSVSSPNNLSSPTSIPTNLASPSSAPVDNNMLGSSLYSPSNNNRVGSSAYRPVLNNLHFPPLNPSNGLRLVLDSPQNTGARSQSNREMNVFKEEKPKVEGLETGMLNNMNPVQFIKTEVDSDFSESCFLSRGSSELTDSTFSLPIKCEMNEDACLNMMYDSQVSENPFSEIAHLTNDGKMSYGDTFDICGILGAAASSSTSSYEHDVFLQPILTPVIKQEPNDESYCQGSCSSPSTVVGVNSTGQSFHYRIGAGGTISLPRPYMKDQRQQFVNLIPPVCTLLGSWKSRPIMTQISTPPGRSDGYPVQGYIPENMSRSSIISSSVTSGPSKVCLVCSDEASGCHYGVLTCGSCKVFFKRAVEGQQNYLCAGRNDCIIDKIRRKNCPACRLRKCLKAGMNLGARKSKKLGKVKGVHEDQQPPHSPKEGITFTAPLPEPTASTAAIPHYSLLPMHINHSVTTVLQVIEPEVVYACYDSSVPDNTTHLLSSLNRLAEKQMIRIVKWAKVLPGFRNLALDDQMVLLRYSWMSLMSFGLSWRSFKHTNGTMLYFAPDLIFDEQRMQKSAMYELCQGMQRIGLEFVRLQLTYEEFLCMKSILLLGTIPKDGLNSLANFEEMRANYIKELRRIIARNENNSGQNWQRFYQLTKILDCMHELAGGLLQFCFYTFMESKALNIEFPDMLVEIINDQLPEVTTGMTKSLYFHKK
From the text: luciferase reporter transactivation in HEK293 cells on FLAG-tagged wild-type elephant shark MR

[3] = biological target: T3, FLAG-tagged wild-type elephant shark GR (Callorhinchus milii, UniProt A0A4W3H7L4); details: MMTV-luc promoter; agonist; 37 C
T3 construct: full-length, N-terminal FLAG tag, transiently expressed in HEK293 cells
From the text: as §1

C[C@]12CC[C@H]3[C@@H](CCC4=CC(=O)CC[C@@]43C)[C@@H]1CC[C@@H]2C(=O)CO [DOC, 11-deoxycorticosterone]
EC50 [1]: 13 nM

C[C@]12CCC(=O)C=C1CC[C@@H]1[C@@H]2[C@@H](O)C[C@]2(C=O)[C@@H](C(=O)CO)CC[C@@H]12 [Aldo, aldosterone]
EC50 [1]: 14.1 nM

C[C@]12CCC(=O)C=C1CC[C@@H]1[C@@H]2CC[C@@]2(C)[C@H]1CC[C@]2(O)C(=O)CO [S, 11-deoxycortisol]
EC50 [2]: 0.13 nM

C[C@]12CCC(=O)C=C1CC[C@@H]1[C@@H]2[C@@H](O)C[C@@]2(C)[C@H]1CC[C@]2(O)C(=O)CO [Cortisol]
EC50 [2]: 0.5 nM | EC50 [3]: 13.9 nM | EC50 [1]: 25.2 nM

C[C@]12C[C@H](O)[C@H]3[C@@H](CCC4=CC(=O)CC[C@@]43C)[C@@H]1CC[C@@H]2C(=O)CO [CORT, Corticosterone]
EC50 [1]: 6 nM
